Experimental data published in ChEMBL document CHEMBL5465560, “Selectivity Literature for EUbOPEN Chemogenomic Library” (2024).
One block for each molecule: values may come before it.

Key:
[1] = biological target: T1, Serine/threonine-protein kinase Nek9 (Homo sapiens) (UniProt Q8TD19); assay: Selectivity interaction (KinomeScan (DiscoverX)) EUB0001079a NEK9; settings: at 1 µM
T1 sequence (whole entry): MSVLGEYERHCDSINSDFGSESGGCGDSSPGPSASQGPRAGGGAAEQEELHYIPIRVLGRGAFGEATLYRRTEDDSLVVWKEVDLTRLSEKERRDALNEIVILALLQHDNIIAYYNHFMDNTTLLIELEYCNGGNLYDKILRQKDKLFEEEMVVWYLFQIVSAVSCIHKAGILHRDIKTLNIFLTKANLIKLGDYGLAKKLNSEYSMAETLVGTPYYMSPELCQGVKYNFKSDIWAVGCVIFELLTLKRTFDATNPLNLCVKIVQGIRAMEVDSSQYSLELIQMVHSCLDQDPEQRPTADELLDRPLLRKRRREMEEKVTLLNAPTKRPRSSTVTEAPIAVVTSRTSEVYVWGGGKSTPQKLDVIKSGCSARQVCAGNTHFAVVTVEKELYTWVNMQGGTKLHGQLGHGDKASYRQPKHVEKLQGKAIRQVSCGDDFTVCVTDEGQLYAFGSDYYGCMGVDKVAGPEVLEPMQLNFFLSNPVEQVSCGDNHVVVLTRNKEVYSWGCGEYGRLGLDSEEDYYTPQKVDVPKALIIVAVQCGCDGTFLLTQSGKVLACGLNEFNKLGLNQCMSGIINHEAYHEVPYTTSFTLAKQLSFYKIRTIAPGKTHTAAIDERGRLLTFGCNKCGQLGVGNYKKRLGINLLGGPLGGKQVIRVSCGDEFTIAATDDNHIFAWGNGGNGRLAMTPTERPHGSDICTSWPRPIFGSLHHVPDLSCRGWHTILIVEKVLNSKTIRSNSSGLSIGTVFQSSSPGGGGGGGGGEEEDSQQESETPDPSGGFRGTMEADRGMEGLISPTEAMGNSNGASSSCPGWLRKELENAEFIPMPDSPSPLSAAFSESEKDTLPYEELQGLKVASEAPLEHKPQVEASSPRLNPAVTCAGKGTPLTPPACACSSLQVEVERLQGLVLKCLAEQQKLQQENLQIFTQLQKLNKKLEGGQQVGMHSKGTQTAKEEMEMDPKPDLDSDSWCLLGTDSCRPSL

[2] = biological target: T2, Serine/threonine-protein kinase STK11 (Homo sapiens) (UniProt Q15831); assay: Selectivity interaction (KinomeScan (DiscoverX)) EUB0000607a STK11; settings: at 10 µM
T2 sequence (whole entry): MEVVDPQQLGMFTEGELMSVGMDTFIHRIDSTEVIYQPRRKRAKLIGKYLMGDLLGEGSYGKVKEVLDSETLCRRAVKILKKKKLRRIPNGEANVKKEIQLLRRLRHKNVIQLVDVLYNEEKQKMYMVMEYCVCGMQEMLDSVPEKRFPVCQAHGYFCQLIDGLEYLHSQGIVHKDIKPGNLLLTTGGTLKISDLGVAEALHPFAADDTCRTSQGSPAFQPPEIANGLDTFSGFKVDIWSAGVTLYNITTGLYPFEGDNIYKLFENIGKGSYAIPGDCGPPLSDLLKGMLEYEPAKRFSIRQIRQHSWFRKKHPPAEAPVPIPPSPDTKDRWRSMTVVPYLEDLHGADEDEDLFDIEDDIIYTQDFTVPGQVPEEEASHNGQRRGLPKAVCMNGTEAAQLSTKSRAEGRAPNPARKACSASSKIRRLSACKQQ

[3] = biological target: T3, Tyrosine-protein kinase JAK3 (Homo sapiens) (UniProt P52333); assay: Selectivity interaction (ActivX KiNativ screen (ex vivo kinase selectivity in human PBMCs)) EUB0001619a JAK3; format: cell-based; settings: PBMC, at 1 µM
T3 sequence (whole entry): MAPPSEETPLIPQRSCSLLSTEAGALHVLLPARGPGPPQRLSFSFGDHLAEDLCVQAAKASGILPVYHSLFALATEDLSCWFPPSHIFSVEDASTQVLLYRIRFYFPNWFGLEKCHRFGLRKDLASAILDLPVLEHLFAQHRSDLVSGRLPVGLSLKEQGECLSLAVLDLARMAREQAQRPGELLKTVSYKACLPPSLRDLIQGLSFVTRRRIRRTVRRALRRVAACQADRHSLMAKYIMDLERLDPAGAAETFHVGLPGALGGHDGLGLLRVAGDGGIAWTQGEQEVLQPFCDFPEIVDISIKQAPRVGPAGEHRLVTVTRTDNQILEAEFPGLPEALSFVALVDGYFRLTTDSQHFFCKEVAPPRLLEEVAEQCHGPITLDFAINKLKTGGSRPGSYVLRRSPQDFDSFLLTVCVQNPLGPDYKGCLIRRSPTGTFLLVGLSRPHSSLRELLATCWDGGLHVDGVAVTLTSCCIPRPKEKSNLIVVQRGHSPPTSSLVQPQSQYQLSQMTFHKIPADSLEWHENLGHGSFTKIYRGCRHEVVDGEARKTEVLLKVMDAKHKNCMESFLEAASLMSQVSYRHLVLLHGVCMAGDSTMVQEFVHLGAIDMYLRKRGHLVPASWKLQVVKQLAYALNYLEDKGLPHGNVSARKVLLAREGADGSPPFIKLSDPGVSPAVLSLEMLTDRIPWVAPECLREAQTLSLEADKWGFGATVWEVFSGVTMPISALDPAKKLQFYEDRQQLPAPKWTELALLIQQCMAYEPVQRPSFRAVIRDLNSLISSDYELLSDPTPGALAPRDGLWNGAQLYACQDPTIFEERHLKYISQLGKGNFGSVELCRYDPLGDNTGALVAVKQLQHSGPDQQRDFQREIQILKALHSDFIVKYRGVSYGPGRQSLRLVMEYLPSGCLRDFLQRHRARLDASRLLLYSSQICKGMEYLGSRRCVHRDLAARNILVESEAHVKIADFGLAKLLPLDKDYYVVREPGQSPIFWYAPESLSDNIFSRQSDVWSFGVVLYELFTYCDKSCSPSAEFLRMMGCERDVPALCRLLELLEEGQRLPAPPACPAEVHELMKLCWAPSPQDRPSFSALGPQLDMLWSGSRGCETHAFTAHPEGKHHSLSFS

[4] = biological target: T4, Dual specificity mitogen-activated protein kinase kinase 3 (Homo sapiens) (UniProt P46734); settings: at 10 µM
T4 sequence (whole entry): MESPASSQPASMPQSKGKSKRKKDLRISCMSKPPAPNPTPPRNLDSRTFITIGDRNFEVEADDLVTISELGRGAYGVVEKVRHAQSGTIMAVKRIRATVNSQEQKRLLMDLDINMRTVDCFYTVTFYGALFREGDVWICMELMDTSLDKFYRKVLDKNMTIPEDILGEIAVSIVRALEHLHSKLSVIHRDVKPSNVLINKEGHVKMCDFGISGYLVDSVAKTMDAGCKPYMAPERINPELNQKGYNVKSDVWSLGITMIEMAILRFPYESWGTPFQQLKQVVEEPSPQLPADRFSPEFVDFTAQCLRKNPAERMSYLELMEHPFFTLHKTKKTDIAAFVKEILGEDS

[5] = biological target: Tyrosine-protein kinase BTK (Homo sapiens, UniProt Q06187); assay: Selectivity interaction (Kinase panel (33PanQinase(R) Activity Assay)) EUB0000877a BTK
Sequence of Tyrosine-protein kinase BTK (Q06187 whole entry): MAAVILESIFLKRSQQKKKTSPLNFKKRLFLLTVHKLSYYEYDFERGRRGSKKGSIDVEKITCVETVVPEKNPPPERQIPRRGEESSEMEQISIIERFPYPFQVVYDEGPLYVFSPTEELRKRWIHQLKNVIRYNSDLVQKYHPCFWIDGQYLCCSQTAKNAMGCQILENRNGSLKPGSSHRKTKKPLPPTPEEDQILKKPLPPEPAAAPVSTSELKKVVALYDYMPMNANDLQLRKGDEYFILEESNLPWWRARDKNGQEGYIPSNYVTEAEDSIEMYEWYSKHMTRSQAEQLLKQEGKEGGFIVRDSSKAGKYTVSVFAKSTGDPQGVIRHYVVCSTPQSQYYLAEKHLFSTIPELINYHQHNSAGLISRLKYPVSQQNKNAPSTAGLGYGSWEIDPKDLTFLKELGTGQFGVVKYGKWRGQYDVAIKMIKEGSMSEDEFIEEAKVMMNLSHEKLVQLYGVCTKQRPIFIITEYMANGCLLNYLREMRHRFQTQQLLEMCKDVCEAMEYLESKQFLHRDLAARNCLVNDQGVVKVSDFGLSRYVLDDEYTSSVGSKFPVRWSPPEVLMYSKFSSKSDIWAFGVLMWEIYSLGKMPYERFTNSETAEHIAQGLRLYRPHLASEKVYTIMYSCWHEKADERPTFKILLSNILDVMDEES

SMILES: Nc1cnc(N2CCc3cc(S(=O)(=O)Nc4c(F)cc(Cl)cc4F)cc(N4CCCC4=O)c32)nc1 [TP-020n]
% of control [1]: 98%

SMILES: CNC(=O)Nc1ccc(-c2nc(N3CC4CCC(C3)O4)c3cnn(C4CCC5(CC4)OCCO5)c3n2)cc1
% of control [2]: 80%

SMILES: N#Cc1cccc(-c2c[nH]c3ncnc(N4CCOCC4)c23)c1
% of inhibition [3]: 6%

SMILES: Cc1cc([C@@H](C)Nc2ccccc2C(=O)O)c2nc(N3CCOCC3)cc(=O)n2c1 [AZD-6482]
% of control [4]: 100%

IC50 [5]: > 10 µM
SMILES: CCC(=O)N1CC[C@H](Nc2ncnc3c2CN(c2cnc(OC)c(C(F)(F)F)c2)CC3)C1 [LENIOLISIB]
